Test results: ChEMBL document CHEMBL1201861, “Genomics of Drug Sensitity in Cancer screening data, Wellcome Trust Sanger Institute”

How the values were obtained:
Assay in all cases: cells
EKVX = type: functional, cell-based, Homo sapiens; conditions: Homo sapiens, EKVX;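 note: growth inhibition of human EKVX cells, read out with a cell viability assay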
Description: SANGER: Inhibition of human EKVX cell growth in a cell viability assay.

EW-18 = type: functional, cell-based; conditions: Homo sapiens;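 note: growth inhibition of EW-18 cells, read out by a cell viability assay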
Description: SANGER: Inhibition of human EW-18 cell growth in a cell viability assay.

NB14 = type: functional, cell-based; conditions: Homo sapiens;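 note: growth inhibition of NB14 cells measured with a cell viability assay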
Description: SANGER: Inhibition of human NB14 cell growth in a cell viability assay.

COLO-320-HSR = type: functional, cell-based; conditions: Homo sapiens;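 note: growth inhibition of COLO-320-HSR cells, determined with a cell viability assay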
Description: SANGER: Inhibition of human COLO-320-HSR cell growth in a cell viability assay.

COLO-668 = type: functional, cell-based, Homo sapiens; conditions: Homo sapiens, COLO-668
Description: SANGER: Inhibition of human COLO-668 cell growth in a cell viability assay.

BB30-HNC = type: functional, cell-based, Homo sapiens; conditions: Homo sapiens, BB30-HNC;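 note: growth inhibition of the cultured cell line, read out by a cell viability assay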
Description: SANGER: Inhibition of human BB30-HNC cell growth in a cell viability assay.

DMS-79 = type: functional, cell-based; conditions: Homo sapiens;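 note: growth inhibition measured with a cell viability assay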
Description: SANGER: Inhibition of human DMS-79 cell growth in a cell viability assay.

SK-UT-1 = type: functional, cell-based, Homo sapiens; conditions: Homo sapiens, SK-UT-1;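 note: growth inhibition of SK-UT-1 cells, measured by a cell viability assay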
Description: SANGER: Inhibition of human SK-UT-1 cell growth in a cell viability assay.

NCI-H1355 = type: functional, cell-based, Homo sapiens; conditions: Homo sapiens, NCI-H1355;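 note: growth inhibition of human NCI-H1355 cells, read out by a cell viability assay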
Description: SANGER: Inhibition of human NCI-H1355 cell growth in a cell viability assay.

NB69 = type: functional, cell-based, Homo sapiens; conditions: Homo sapiens, NB69;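 note: growth inhibition of NB69 cells, determined by a cell viability assay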
Description: SANGER: Inhibition of human NB69 cell growth in a cell viability assay.

TE-8 = type: functional, cell-based, Homo sapiens; conditions: Homo sapiens, TE-8;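 note: growth inhibition of TE-8 cells, measured with a cell viability readout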
Description: SANGER: Inhibition of human TE-8 cell growth in a cell viability assay.

KARPAS-45 = type: functional, cell-based; conditions: Homo sapiens;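 note: inhibition of cell line growth, read out through a viability assay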
Description: SANGER: Inhibition of human KARPAS-45 cell growth in a cell viability assay.

CCRF-CEM = type: functional, cell-based; conditions: Homo sapiens;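 note: inhibition of CCRF-CEM cell growth, measured by a cell viability assay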
Description: SANGER: Inhibition of human CCRF-CEM cell growth in a cell viability assay.

TK-10 = type: functional, cell-based, Homo sapiens; conditions: Homo sapiens, TK-10;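 note: growth inhibition of TK-10 cells, read out in a cell viability assay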
Description: SANGER: Inhibition of human TK10 cell growth in a cell viability assay.

ALL-PO = type: functional, cell-based; conditions: Homo sapiens;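 note: growth inhibition of ALL-PO cells, read out by a cell viability assay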
Description: SANGER: Inhibition of human ALL-PO cell growth in a cell viability assay.

NB13 = type: functional, cell-based, Homo sapiens; conditions: Homo sapiens, NB13;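 note: cell viability readout measuring growth inhibition of human NB13 cells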
Description: SANGER: Inhibition of human NB13 cell growth in a cell viability assay.

OMC-1 = type: functional, cell-based, Homo sapiens; conditions: Homo sapiens, OMC-1;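 note: growth inhibition of the OMC-1 cell line, measured by a cell viability assay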
Description: SANGER: Inhibition of human OMC-1 cell growth in a cell viability assay.

COLO-684 = type: functional, cell-based; conditions: Homo sapiens
Description: SANGER: Inhibition of human COLO-684 cell growth in a cell viability assay.

GI-1 = type: functional, cell-based, Homo sapiens; conditions: Homo sapiens, GI-1;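 note: growth inhibition of human GI-1 cells, measured with a cell viability readout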
Description: SANGER: Inhibition of human GI-1 cell growth in a cell viability assay.

KU812 cell line = type: functional, cell-based; conditions: Homo sapiens;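 note: growth inhibition of KU812 cells, read out with a cell viability assay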
Description: SANGER: Inhibition of human KU812 cell growth in a cell viability assay.

HCC1187 = type: functional, cell-based, Homo sapiens; conditions: Homo sapiens, HCC1187;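 note: growth inhibition of HCC1187 cells, read out with a cell viability assay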
Description: SANGER: Inhibition of human HCC1187 cell growth in a cell viability assay.

K5 = type: functional, cell-based, Homo sapiens; conditions: Homo sapiens, K5
OCI-AML2 = type: functional, cell-based; conditions: Homo sapiens;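 note: growth inhibition of OCI-AML2 cells, read out with a cell viability assay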
Description: SANGER: Inhibition of human OCI-AML2 cell growth in a cell viability assay.

SK-PN-DW = type: functional, cell-based; conditions: Homo sapiens;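 note: growth inhibition measured with a viability assay on these cells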
Description: SANGER: Inhibition of human SK-PN-DW cell growth in a cell viability assay.

LS-1034 = type: functional, cell-based, Homo sapiens; conditions: Homo sapiens, LS-1034
Description: SANGER: Inhibition of human LS-1034 cell growth in a cell viability assay.

ETK-1 = type: functional, cell-based, Homo sapiens; conditions: Homo sapiens, ETK-1;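 note: growth inhibition of human ETK-1 cells, read out with a cell viability assay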
Description: SANGER: Inhibition of human ETK-1 cell growth in a cell viability assay.

COLO-824 = type: functional, cell-based, Homo sapiens; conditions: Homo sapiens, COLO-824
Description: SANGER: Inhibition of human COLO-824 cell growth in a cell viability assay.

ATN-1 = type: functional, cell-based; conditions: Homo sapiens;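 note: growth inhibition of human ATN-1 cells, read out with a cell viability assay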
Description: SANGER: Inhibition of human ATN-1 cell growth in a cell viability assay.

NCI-H1304 = type: functional, cell-based; conditions: Homo sapiens;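 note: growth inhibition of the cancer cell line, measured in a cell viability assay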
Description: SANGER: Inhibition of human NCI-H1304 cell growth in a cell viability assay.

SCC-15 = type: functional, cell-based, Homo sapiens; conditions: Homo sapiens, SCC-15;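 note: growth inhibition of SCC-15 cells, read out with a cell viability assay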
Description: SANGER: Inhibition of human SCC-15 cell growth in a cell viability assay.

Measured: IC50

CC1=C2C[C@H]3[C@@H](CC=C4C[C@@H](O)CC[C@@]43C)[C@@H]2CC[C@]12O[C@@H]1C[C@H](C)CN[C@H]1[C@H]2C [CYCLOPAMINE]
11.8 µM: ALL-PO
> 16 µM: all other assays above

CN1CCN(CCOc2cc(OC3CCOCC3)c3c(Nc4c(Cl)ccc5c4OCO5)ncnc3c2)CC1 [SARACATINIB]
0.862 µM: BB30-HNC
1.37 µM: NB69
0.873 µM: TE-8
0.907 µM: TK-10
> 2 µM: all other assays above

CS(=O)(=O)CCNCc1ccc(-c2ccc3ncnc(Nc4ccc(OCc5cccc(F)c5)c(Cl)c4)c3c2)o1 [LAPATINIB]
0.449 µM: EKVX
0.247 µM: BB30-HNC
> 2 µM: all other assays above

CCc1nc(N)nc(N)c1-c1ccc(Cl)cc1 [PYRIMETHAMINE]
9.39 µM: CCRF-CEM
6.76 µM: COLO-684
1.78 µM: ATN-1
1.19 µM: ALL-PO
8.5 µM: OCI-AML2
7.42 µM: TK-10
4.1 µM: ETK-1
15.6 µM: KU812 cell line
18.3 µM: LS-1034
4 µM: COLO-320-HSR
not listed: SCC-15
> 20 µM: all other assays above

CNC(=O)c1cc(Oc2ccc(NC(=O)Nc3ccc(Cl)c(C(F)(F)F)c3)cc2)ccn1 [SORAFENIB]
0.0318 µM: ALL-PO
not listed: BB30-HNC
> 4 µM: all other assays above

C=C1C(=O)O[C@@H]2C3O[C@]3(C)CC/C=C(\C)CC[C@@H]12 (some centres not stated)
not listed: SCC-15
> 5 µM: all other assays above
